According to US20130266663A1, “SOX9 INHIBITORS” (priority 2010, published 2013):

Columns and labels:
SOX9 = SOX9 luciferase reporter assay in transfected astrocytes; type: cell-based, rat; conditions: cultured rat astrocytes, 24 h treatment
Source text: Cultures early after plating bear characteristics of immature and reactive astroctyes associated with acute damage. In this assay, primary astrocytes are transfected with a SOX9 reporter construct that consists of 4 repeats of the SOX9 binding site coupled to the mouse Col2a1 minimal promoter cloned upstream of a luciferase gene in the plasmid pGL4, as previously described in WO 2008/049226. After normalization for transfection efficiency, SOX9 activity can be monitored in transfected astrocytes by luciferase activity. Cells transfected with the SOX9 reporter construct were cultured in the presence and absence of potential inhibitors for 24 hours at which time the cells were lysed and luciferase levels measured. Compounds that reduced the levels of luciferase activity relative to control wells were considered as positive “hits”. In a secondary screen, false positives that cause a reduction in luciferase activity due to effects on cell viability, were eliminated using a cell viability assay (CellTiter-Flour—Promega). Subsequent to secondary screening, the “hits” were evaluated for their affect on SOX9 target gene expression by Q-PCR studies in primary astrocytes.
The utility of calmodulin antagonists (inhibitor) to decrease SOX9 target gene expression was evaluated in cultured rat astrocytes transfected with pGL4.1 4×48 Col2a1 prepared as described in Example 1. This plasmid contains 4-48 bp SOX9-binding sites from the Col2A1 enhancer which promote luciferase reporter gene expression in cells where SOX9 is active i.e. in the nucleus. The day after transfection, cells were treated for 24 h with inhibitor in concentrations as described below and in FIG. 5 before the luciferase assay was performed.
In this example, the potential of compounds that modulate calcium channels to modulate SOX9 activity is tested. The compounds were evaluated in cultured rat astrocytes transfected with pGL4.1 4×48 Col2a1. The day after transfection, cells were treated for 24 h with selected inhibitors before the luciferase assay was performed.
Antagonists to TRPV4 cation channel were tested to determine their ability to decrease the activity of SOX9 in astrocytes. The effect of TRPV4 antagonists on SOX9 function was evaluated in cultured rat astrocytes transfected with pGL4.1 4×48 Col2a1. The day after transfection, cells were treated for 24 h with 2-APB (100 μM) or ruthenium red (10 μM) before the luciferase assay was performed. […] With respect to SOX9 target genes, Q-PCR analysis of aged primary astrocyte cultures was performed to determine the impact of the TRPV4 antagonists on SOX9. […] Collagen IV is a significant scarring extracellular matrix produced by astrocytes and contributing to the inhibitory properties of the glial scar.

Collagen IV = test: Western blotting of astrocyte culture protein extract probed with anti-collagen IV; type: cell-based, rat; conditions: 20 uM
SOX9 target genes [1] = test: Short-term SOX9 target gene expression (Q-PCR) in injured cord after SCI; type: in vivo; conditions: rat SCI, 2 mg/kg ip 2 hours after injury, sacrificed twelve hours later
Protocol: To validate the impact of the compounds on relevant conditions in rodents, a short-term experiment was performed to see whether chlorpromazine might reduce SOX9 target gene expression in vivo. […] Twelve hours later the rats were sacrificed and RNA was isolated from a 5 mm segment of their injured cords centered on the lesion. […] Specifically, the decrease in the expression of GFAP indicates a lower level of astrocyte activation.
Twelve hours later the rats were sacrificed and RNA was isolated from a 5 mm segment of their injured cords centered on the lesion.

SOX9 target genes [2] = test: Real-time PCR of SOX9 target genes after SCI, chlorpromazine i.p. once a day for 7 days; type: in vivo, rat
Protocol: In the context of rodent studies, administration of chlorpromazine was assessed using delivery by intraperitoneal injection (as described in Example 3) and intrathecal miniosmotic pump (as described in Example 5). In summary, three doses of chlorpromazine were given i.p. (2 mg/kg, 4 mg/kg and 6 mg/kg) once a day for 7 days. The rats were then sacrificed and realtime pCR analysis of SOX9, GFAP. XT1, link protein, collagen 2A, aggrecan and brevican was conducted on a spinal cord sample normalizing to 18S.

SOX9 target genes [3] = test: Quantitative RT-PCR of SOX9 target genes after SCI, intrathecal miniosmotic pump delivery for 7 days; type: in vivo, rat; conditions: spinal cord-injured rats, 0.35 mg/ml or 3.5 mg/ml
Protocol: To assess, the intrathecal miniosmotic pump as a means of compound delivery, spinal cord-injured rats received either saline, 0.35 mg/ml or 3.5 mg/ml of chlorpromazine for 7 days. At 7 days the levels of SOX9 target gene expression including GFAP, Brevican, XT-1 and Hapln1 were measured by quantitative RT-PCR as previously described.

MCAO mice = test: Grip testing after MCAO (stroke model); type: in vivo; conditions: mouse MCAO, 5 mg/kg daily i.p. from 24 hours post-injury
Protocol: At 3 days and 7 days post-injury, recovery of the damaged side was assessed by grip testing. […] This provides evidence that chemical compounds that modulate SOX9 activity can improve behavioral function following general CNS damage including that associated with spinal cord injury and stroke.
Stroke injury model: A standard MCAO mouse model will be utilized. Briefly, an 11 mm length of monofilament nylon coated with Poly-L-lysine is passed into the common carotid artery, through the internal carotid artery, and past the middle cerebral artery (MCA), effectively occluding the MCA. The loop of suture is tightened down and the mouse allowed to recover in a warm cage. Effective cerebral blood flow reduction is confirmed by a laser-Doppler flowmetry probe (reductions of 70% or better indicating successful occlusion). After 30 minutes for a moderate injury or 60 minutes for a severe injury, the mouse is re-anesthetized and the nylon suture removed allowing reperfusion.

[4] = rat SCI, i.p. 2, 4 and 6 mg/kg once a day for 7 days, normalized to 18S

CN(C)CCCN1c2ccccc2Sc2ccc(Cl)cc21 [chlorpromazine]
concentration at which the decrease in luciferase reporter activity is optimized / maximal (SOX9): 20 µM | luciferase reporter activity (SOX9 activity) (SOX9; various concentrations (FIG. 5)): apparent dose dependent response to limiting luciferase expression | level of collagen IV (Western blot) (Collagen IV): reduced level of collagen | CSPG Aggrecan expression (SOX9 target genes [1]): significant decrease | Type II collagen expression (SOX9 target genes [1]): reduced | Type IV collagen expression (SOX9 target genes [1]): reduced | expression of GFAP (SOX9 target genes [1]): decrease | expression of scar generating factors (SOX9 target genes [1]): decreased expression | impact on target gene expression (SOX9 target genes [2]; at 2 and 4 mg/kg administration, i.p., 7 days): apparent impact on target gene expression | expression of Aggrecan (SOX9 target genes [2]; [4]): reduces the expression | expression of Brevican (SOX9 target genes [2]; [4]): reduces the expression | expression of GFAP (SOX9 target genes [2]; [4]): reduces the expression | expression of HAPLN1 (SOX9 target genes [2]; [4]): reduces the expression | expression of SOX9 (SOX9 target genes [2]; [4]): reduces the expression | expression of XT-1 (SOX9 target genes [2]; [4]): reduces the expression | expression of type 2A Collagen (SOX9 target genes [2]; [4]): reduces the expression | SOX9 target gene expression including GFAP, Brevican, XT-1 and Hapln1 (SOX9 target genes [3]): improved anticipated outcome at 3.5 mg/ml of drug | improvement over saline control in grip testing (MCAO mice; 3 days post injury): approximately 15% | improvement over saline control in grip testing (MCAO mice; 7 days post injury): approximately 20%
